Source: patent US6949654B2, “N-alkyl-N-phenylhydroxylamine compounds containing metal chelating groups, their preparation and their therapeutic uses” (Sam-Sung Electronics Co., Ltd., priority 2001, dated 2005)

Assays:
[1] = tested on: soybean phosphatidylcholine liposome; test: Inhibition of lipid peroxidation of a multilayer liposome (TBA method); type: biochemical; details: lipid peroxidation of liposome started with FeCl2, 37° C. 15 minutes, absorbance at 532 nm; read-out: Inhibitor Concentration (IC50)
Experimental: The compounds of the present invention were tested for antioxidant effect in terms of the repression of the radical chain reaction of a multilayer liposome.
The liposome was prepared as followings: 30 mg of commercially available soybean phosphatidylcholine (PC, Sigma Chemical Co., U.S.A.) was dissolved in 1 mL of ethanol, and 200 μL of the ethanol/PC solution was added to 10 mL of 10 mM Tris buffer including 50 mM NaCl (pH 7.0) with stirring.
The ability of a compound to inhibit oxidation of the liposome was evaluated as followings: To 400 μL of the liposomes were added the test compound (in buffer or ethanol) and histidine-FeCl3 (167:33 μM final). Oxidation was initiated by the addition of FeCl2 (33 μM final prepared in nitrogen purged water). The mixtures was shaken at 37° C. for 15 minutes. Thereafter, tubes were treated with 1 mL of 0.67% thiobabituric acid (TBA):10% trichloroacetic acid (2:1, v/v) in 0.25 N HCl solution, containing 1.5% (v/v) t-butylhydroxytoluene (BHT) to terminate oxidation. The aliquots were heated to 100° C. for 20 minutes. After ice cooling, 1 mL of chloroform was added to 1 mL supernatant from tubes and tubes were centrifuged. The absorbances of the resulting supernatant were measured at 532 nm (see: Table 1 below).

[2] = even in the presence of an excess of glutathione (GSH); cited from earlier work
[3] = tested on: ischemic neuronal degeneration; test: Protection of cell damage by ischemia (in vivo); set-up: species or system Mongolian gerbils (Meriones unguiculatus); details: 60 mg/kg P.O. 30 minutes after ischemic injury (post-treated), 5 min carotid occlusion, 4 days reperfusion, hippocampus
Experimental: Male Mongolian gerbils (Meriones unguiculatus) weighing 80-88 g were used in the present study. Each animal was medicated P.O. with vehicle, Ebselen or various test compounds (60 mg/kg in 10% DMSO), after 30 minutes ischemic injury, respectively. 20 animals were allotted into every group. The animals were placed under general anesthesia with a mixture of 2.5% isoflurane in 33% oxygen and 67% nitrous oxide. A midline ventral incision was made in the neck. Both common carotid arteries were isolated, freed of nerve fibers, and occluded using nontraumatic aneurysm clips. Complete interruption of blood flow was confirmed by observing the central artery in eyeballs using ophthalmoscope. After five minutes of occlusion, the aneurysm clips were removed from both common carotid arteries. Restoration of blood flow (reperfusion) was observed directly under the microscope. Sham-operated controls were subjected to the same surgical procedures except that common carotid arteries were not occluded. Body temperature was monitored and maintained at 37° C.±0.5° C. during surgery and during the immediate postoperative period until the animals recovered fully from anesthesia. […]
Images of staining in the hippocampus of each animal were captured with an Applescanner. […] All data obtained from the quantitative data were analyzed using one-way ANOVA to determine statistical significance. […]

mice = details: oral administration; cited from earlier work
rats = details: oral administration; cited from earlier work
[4] = Acute toxicity LD50 in rats; details: rat, in vivo

| IC50 [1] | Compound | protective effect against ischemic neuronal degeneration [3] | other results |
| --- | --- | --- | --- |
| 11.1 µM | 4-[N-(tert-butyl)-N-hydroxyamino]-N-pyridin-2-yl-methyl-benzamide [Example 3] | – | – |
| – | O=c1c2ccccc2[se]n1-c1ccccc1 [Ebselen] | 59% | solubility in water [2]: very little soluble in water; LD50 (mice): ≥ 6,810 mg/kg; LD50 (rats): ≥ 6,810 mg/kg |
| 10.2 µM | Cc1c(C)c2c(c(C)c1O)CCC(C)(C(=O)O)O2 (stereo not drawn) [Trolox, reference compound] | – | – |
| 4.3 µM | CC(C)(C)N(O)c1ccc(C(=O)Nc2ccccn2)cc1 [Example 2, 4-[N-(tert-butyl)-N-hydroxyamino]-N-pyridin-2-yl-benzamide] | – | – |
| 61.9 µM | CC(C)(C)N(O)c1ccc(C(=O)Nc2ccc(O)c3ncccc23)cc1 [Example 4, 4-[N-(tert-butyl)-N-hydroxyamino]-N-(8-hydroxyquinolin-5-yl)-benzamide] | – | – |

| Compound | IC50 [1] | protective effect against ischemic neuronal degeneration [3] | other results |
| --- | --- | --- | --- |
| CC(C)(C)N(O)c1ccc(C(=O)Nc2nccs2)cc1 [Example 1, 4-[N-(tert-butyl)-N-hydroxyamino]-N-thiazol-2-yl-benzamide] | 1.44 µM | 81% | LD50 ([4]; ip, intraperitoneal administration in rats): ≥ 750 mg/kg; LD50 ([4]; oral administration in rats): ≥ 7000 mg/kg |
